# Measured values from US20050019331A1, “Synthetic peptide neutrophil cell chemotactic agents” (Chrysalis Biotechnology, priority 1994, published 2005).
# pEC50: −log10 of the molar value. Ends that are not written are not given here.
# Columns and labels:
# [1] = system: neutrophils; test: Superoxide generation by stimulated neutrophils (SOD-inhibitable ferricytochrome C reduction); assay type: cell-based, human; conditions: for O2 released (superoxide generation): 2×10^6 neutrophils/ml, twenty minutes after addition
# Method: Superoxide generation was determined by measuring the superoxide dismutase (SOD)-inhibitable reduction of ferricytochrome C (Thomas et al., 1992, incorporated herein by reference). Briefly, 2×10^6 neutrophils/ml were incubated with, ferricytochrome C (433 μg/ml) and glucose (1.1 mM) in phosphate buffered saline (PBS) at 37° C. for five minutes, in presence or absence of 1 μg/ml SOD. Twenty minutes after addition of NTP, IL-8, or PBS, aliquots were removed, cooled to 4° C., and filtered through […] particle separators (Amicon). The optical absorption of the filtrate was then read at 550 nm. The amount of O2 generated was calculated by the difference in absorbance of the samples with or without SOD, using a 15.5 millimolar extinction coefficient at 550 nm for cytochrome C reduction.
# [2] = system: human neutrophils; test: Neutrophil chemotaxis in Modified Boyden 48-well Microchemotaxis Chambers; assay type: cell-based; conditions: for maximal stimulation of neutrophil chemotaxis relative to thrombin or IL-8: FIG. 3 vs FIG. 1C
# Method: Human neutrophils were isolated from blood of healthy volunteers, drawn into one-tenth volume of trisodium citrate. The neutrophils were isolated from the blood using established Ficoll-Hypaque (MONO POLYRESOLVING MEDIUM™) protocol, Kalmer et al. 1988, specifically incorporated herein by reference. The cells were washed in HBSS containing 20 mM HEPES, pH 7.4 (HHBSS), pelleted by centrifugation (600×g), and resuspended into HHBSS at the indicated density. Trypan blue exclusion assays indicated greater than 97% cell viability.
# Freshly isolated human neutrophils (150,000 cells per 50 μl) were applied to wells of Modified Boyden 48-well Microchemotaxis Chambers (Neuro Probe, Cabin John, Md.) with pre-wet […], PVP-free polycarbonate membranes (Neuro Probe, Cabin John, Md.) (see Mansfield, et al. 1990, which is specifically incorporated herein by reference). The lower well in these chambers were filled with 27 μl of HHBSS solution containing indicated concentrations of substances to be tested. After loading, the chambers were incubated for 2 hours at 37° C. Membranes were removed, rinsed with HHBSS, fixed and stained using DIFF-QUIK® to visualize and quantitate cells that had migrated through the filters. For each assay condition, cells migrating through 4 wells were examined using a Nikon Microscope (at 400×). For each well, the total cells present in 6 random fields were counted and recorded. Each assay represents data from at least three analyses of the same type with neutrophils isolated from at least two individuals.
# Freshly isolated human peripheral blood neutrophils were added to wells of Modified Boyden Microwell Chemotaxis Chambers and the number of cells migrating through the filters was determined as described in Materials and Methods. For each assay, cells migrating through 4 wells were examined, counted, and recorded (6 random fields per well) using a Nikon LabPhot Microscope (400×).
# Human neutrophils were added to wells of Boyden Microwell Chambers and assayed for directed chemotaxis toward indicated concentrations of synthetic peptides representing the tethered ligand region of PART (SFLLRNPNDKYEPF—SEQ ID NO.: 7), or TRAP-508, the high-affinity receptor binding domain of human thrombin ([…]—SEQ ID NO.: 8).
# Indicated concentrations of peptides representing residues 26-41 of the human (SEQ ID NO.: 1) (∇) or hamster (SEQ ID NO.: 2) (∘) PART receptor component were added to lower wells of Boyden Microwell Chambers and neutrophil chemotaxis toward the peptides was assayed as described above.
# [3] = system: fibroblasts and other cells; conditions: Van Obberghen-Schilling and Pouyssegur 1993; cited from earlier work
# [4] = system: fibroblasts; test: c-fos and other G-protein initiated signals in fibroblasts; assay type: cell-based; conditions: compared with proteolytically active thrombin
# From the text: Therefore, the PART activating peptide fragment was not sufficient to stimulate chemotaxis.
# [5] = system: NTP receptor on human neutrophils; test: 125I-NTP-Y saturation binding to neutrophils
# Method: NTP was radiolabeled using IODO-GEN® (Pierce) catalyzed iodination (Fraker and Speck, 1978, specifically incorporated herein by reference). 5 mCi of Na^125I (Amersham, UK) was incubated in glass tubes coated with IODO-GEN® with 250 μg of HPLC-purified NTP-Y in 250 μl of Phosphate Buffered Saline (PBS), pH 7.2. After 7 minutes, the radiolabeled peptide was separated from free ^125Iodine by its adsorption to a C-18 SEP PAK® column, followed by elution with 100% acetonitrile. The eluted radioactive peptide was then dried under vacuum to remove acetonitrile, rehydrated with PBS, and stored as frozen aliquots (−20° C.) at a concentration of 100 μg/ml.
# For saturation binding assays, […] were incubated at 37° C. with indicated concentrations of ^125I-NTP-Y in 100 μl of DV medium containing 20 mM HEPES buffer, pH 7.4, in 0.6 ml eppendorf tubes. The binding was terminated and ^125I-NTP-Y that was bound to cells was separated from free ^125I-NTP-Y by rapid filtration and rinsing (2× with 10 mls of 4° C. PBS) through Whatman GF/C filters, using a Millipore filtration apparatus. Radioactivity on filters was then counted in a gamma counter (Beckman Instruments, Inc., model Gamma 4000). Nonspecific binding of ^125I-NTP-Y was measured in the presence of a 500-fold molar excess of unlabeled peptide and was subtracted from total binding to determine the amount of specific (saturable) binding.
# NTP was synthesized with an N-terminal tyrosine (YRRPESKATNATLDPR—SEQ ID NO.: 6), analyzed for chemotactic activity, and radiolabeled as described in methods. […] Specific binding was determined by subtracting the nonspecific binding of ^125I-NTP-Y (binding in the presence of 500-fold molar excess of unlabeled NTP-Y) from the total binding. Insert represents a Scatchard-like analysis of the binding isotherm using total radioactivity in the medium as a measure of free ligand. […]
# [6] = system: fibroblasts; test: Parallel 125I-NTP-Y binding studies with fibroblasts
# From the text: The chemotactic effects of NTP appeared to be mediated by interaction with specific NTP receptor binding sites on the surface of neutrophils.
substance,measurement,setting,value
IL-8: recombinant IL-8,O2 released (superoxide generation),[1]; 400 nmolar IL-8,102 ± 16 nmol
same,pEC50,"[2]; FIG. 1, 2 hours at 37° C., read-out: concentration required for half-maximal stimulation of neutrophil chemotaxis",~8.00
NTP: released N-terminal fragment peptide of PART; species (human or hamster) not stated at these places (RQPESEMTDATVNPR),superoxide generation compared to IL-8,[1]; 800 nM NTP vs 400 nmolar IL-8,negligible
same,O2 released (superoxide generation),[1]; 800 nM NTP,9 ± 0.9 nmol
same,neutrophil chemotaxis,"[2]; NTP, Example 4",stimulated neutrophil chemotaxis
same,activity on fibroblasts and other cells,[3],no apparent activity
"RQPESEMTDA TVNPR (RQPESEMTDATVNPR) [SEQ ID NO.: 2, peptide representing residues 26-41 of the hamster PART receptor component]",maximal stimulation of neutrophil chemotaxis relative to thrombin or IL-8,[2],nearly equivalent to that seen with thrombin or IL-8
"RRPESKATNA TLDPR (RRPESKATNATLDPR) [SEQ ID NO.: 1, peptide representing residues 26-41 of the human PART receptor component]",maximal stimulation of neutrophil chemotaxis relative to thrombin or IL-8,[2],nearly equivalent to that seen with thrombin or IL-8
SFFLRN [reference compound],neutrophil chemotaxis,[2]; concentrations up to 2000-fold higher than NTP,did not
"SFLLRNPNDKYEPF [PART activating peptide fragment, synthetic peptide representing the tethered ligand region of PART, reference compound]",stimulation of c-fos and other G-protein initiated signals,[4],nearly the same extent as proteolytically active thrombin
same,neutrophil chemotaxis,"[2]; concentrations up to 7.0 μM, FIG. 2",only marginally chemotactic
^125I-NTP-Y: NTP-Y radiolabeled with 125I by IODO-GEN catalyzed iodination (YRRPESKATNATLDPR; also: 125I radiolabel),binding to human neutrophils,"[5]; 40 min at 37° C., FIG. 5",specified and saturable
same,NTP receptors per cell (saturation curve and Scatchard-like analysis),"[5]; human neutrophils, FIG. 5 insert",~3000 receptors per cell
same,dose-response curve compared with NTP,"[5]; iodinated peptide, iodination does not alter peptide activity",nearly identical to NTP
same,specific binding to fibroblasts,[6],no detectable specific binding
